# In patent publication US10681909B2, “Herbicidal triazoles” (FMC Corporation, priority 2014, dated 2020):
# Tests used:
# Test in all cases: Test E postemergence
# Conditions in all cases: scale 0 to 100
# [1] = test system: field bindweed; assay type: in vivo, Convolvulus arvensis
# Source text: (§1) Seeds of plant species selected from corn (Zea mays), soybean (Glycine max), lambsquarters (Chenopodium album), poinsettia, wild (wild poinsettia, Euphorbia heterophylla), pigweed, palmer (palmer pigweed, Amaranthus palmeri), waterhemp (common waterhemp, Amaranthus rudis), surinam grass (Brachiaria decumbens), crabgrass, large (large crabgrass, Digitaria sanguinalis), crabgrass, Brazilian (Brazilian crabgrass, Digitaria horizontalis), panicum, fall (fall panicum, Panicum dichotomiflorum), foxtail, giant (giant foxtail, Setaria faberii), foxtail, green (green foxtail, Setaria viridis), goosegrass (Eleusine indica), johnsongrass (Sorghum halepense), ragweed (common ragweed, Ambrosia elatior), barnyardgrass (Echinochloa crus-galli), sandbur (southern sandbur, Cenchrus echinatus), arrowleaf sida (Sida rhombifolia), ryegrass, Italian (Italian ryegrass, Lolium multiflorum), dayflower, VA (Virginia dayflower, Commelina virginica), field bindweed (Convolvulus arvensis), cocklebur (common cocklebur, Xanthium strumarium), morningglory (Ipomoea coccinea), nightshade (eastern black nightshade, Solanum ptycanthum), kochia (Kochia scoparia), nutsedge, yellow (yellow nutsedge, Cyperus esculentus), smartweed (ladysthumb smartweed, Polygonum persicaria), velvetleaf (Abutilon theophrasti), horseweed (Conyza canadensis), and beggarticks (hairy beggarticks, Bidens pilosa), were planted into a silt loam soil and treated preemergence with test chemicals formulated in a non-phytotoxic solvent mixture which included a surfactant.
# (§2) At the same time, plants from these crop and weed species and also waterhemp_RES1, (ALS & Triazine resistant common waterhemp, Amaranthus rudis), and waterhemp_RES2, (ALS & HPPD resistant common waterhemp, Amaranthus rudis) were planted in pots containing Sunshine Redi-Earth® planting medium comprising spaghnum peat moss, vermiculite, starter nutrients and dolomitic limestone were treated with postemergence applications of test chemicals formulated in the same manner. Plants ranged in height from 2 to 18 cm for postemergence treatments (1- to 4-leaf stage). Treated plants and controls were maintained in a greenhouse for 14 to 21 d, after which time all species were compared to controls and visually evaluated. Plant response ratings, summarized in Table E, are based on a scale of 0 to 100 where 0 is no effect and 100 is complete control. A dash (-) response means no test result.
# [2] = test system: beggarticks; assay type: in vivo, Bidens pilosa
# Source text: as §1, §2
# [3] = test system: dayflower, VA; assay type: in vivo, Commelina virginica
# Source text: as §1, §2
# [4] = test system: waterhemp_RES1 (ALS & Triazine resistant common waterhemp); assay type: in vivo, Amaranthus rudis
# Source text: as §1, §2
# [5] = test system: waterhemp_RES2 (ALS & HPPD resistant common waterhemp); assay type: in vivo, Amaranthus rudis
# Source text: as §1, §2
# [6] = test system: waterhemp; assay type: in vivo, Amaranthus rudis
# Source text: as §1, §2
# [7] = test system: panicum, fall; assay type: in vivo, Panicum dichotomiflorum
# Source text: as §1, §2
# [8] = test system: barnyardgrass; assay type: in vivo, Echinochloa crus-galli
# Source text: as §1, §2
smiles,measurement,setting,value
COc1nc(-c2ccc(Cl)cc2)nn1Cc1ccnc(C(F)(F)F)c1 [Compound 28],Plant response rating,[1]; 31 g ai/ha,50
same,Plant response rating,[1]; 62 g ai/ha,75
same,Plant response rating,[1]; 125 g ai/ha,80
same,Plant response rating,[1]; 250 g ai/ha,80
same,Plant response rating,[2]; 31 g ai/ha,50
same,Plant response rating,[2]; 62 g ai/ha,60
same,Plant response rating,[2]; 125 g ai/ha,50
same,Plant response rating,[2]; 250 g ai/ha,60
same,Plant response rating,[3]; 31 g ai/ha,60
same,Plant response rating,[3]; 62 g ai/ha,70
same,Plant response rating,[3]; 125 g ai/ha,70
same,Plant response rating,[3]; 250 g ai/ha,70
same,Plant response rating,[4]; 31 g ai/ha,95
same,Plant response rating,[4]; 62 g ai/ha,95
same,Plant response rating,[4]; 125 g ai/ha,95
same,Plant response rating,[4]; 250 g ai/ha,95
same,Plant response rating,[5]; 31 g ai/ha,95
same,Plant response rating,[5]; 62 g ai/ha,90
same,Plant response rating,[5]; 125 g ai/ha,90
same,Plant response rating,[5]; 250 g ai/ha,95
same,Plant response rating,[6]; 31 g ai/ha,90
same,Plant response rating,[6]; 62 g ai/ha,90
same,Plant response rating,[6]; 125 g ai/ha,95
same,Plant response rating,[6]; 250 g ai/ha,95
same,Plant response rating,[7]; 31 g ai/ha,15
same,Plant response rating,[7]; 62 g ai/ha,20
same,Plant response rating,[7]; 125 g ai/ha,20
same,Plant response rating,[7]; 250 g ai/ha,20
same,Plant response rating,[8]; 31 g ai/ha,20
same,Plant response rating,[8]; 62 g ai/ha,25
same,Plant response rating,[8]; 125 g ai/ha,40
same,Plant response rating,[8]; 250 g ai/ha,40
